Assays:
[1] = system: HTLV-1; assay: Inhibition of HTLV-1 transmission to lymphomonocytes by co-cultivation (DNA-PCR, RT-PCR, Tax Western blot); type: cell-based, HTLV-1 (human T lymphotropic retrovirus type 1); conditions: lowest concentrations (5µM and 1 µM)
Description: (§1) To assay the capacity to inhibit transmission, lymphomonocytes of adult peripheral blood were separated by density gradient centrifugation and then infected with HTLV-1 by co-cultivation with a chronically infected line that produces viruses, following irradiation of the donor cells (Miyoshi et al. Nature 1981, 296: 770-772).
(§2) The assayed nucleoside analogues (compounds A, B and C) were added at different concentrations at the moment of infection and the treatment was repeated at 3, 7 and 10 days from the first exposure.
The infection was monitored by verifying that the cells treated had become infected, compared to untreated controls, four weeks after infection. The infection was determined by monitoring the presence of proviral DNA and the viral RNA expression, by DNA-PCR and RT-PCR assay respectively. With these techniques it is possible to amplify and highlight the viral genome of HTLV-1 integrated into the host cell, that is virus-specific RNA-messengers, by the use of specific oligonucleotides for viral regions.
For further evaluation of the infection the viral protein expression of HTLV-1 Tax was also highlighted using Western blot analysis with specific monoclonal antibodies.

[2] = system: lymphomonocytes of adult peripheral blood; assay: Proliferative response of infected and uninfected lymphomonocyte cultures; type: cell-based; conditions: lowest concentrations (5µM and 1 µM)
Description: as §1, §2
Moreover, the infected and uninfected cultures, treated or untreated with the compounds in question, were assayed to determine the proliferative response during infection, in order to verify, in addition to the antiviral effect also any antiproliferative effect with regard to the infected cultures.

[3] = system: RT of avian retrovirus; assay: Inhibition in vitro of retroviral reverse transcriptase (cDNA synthesis, 32P incorporation, gel electrophoresis); type: biochemical; conditions: after preincubation with PBMC lysates
Excerpt: In addition to the tests on cells susceptible to infection by human retroviruses, an assay was set up to highlight the capacity of the compounds A, B and C to inhibit in vitro the activity of a retroviral reverse transcriptase (RT). In short, the assay is based on the principle that starting from an RNA template, it is possible to evaluate the effect of inhibition of the capacity of the RT to synthesise cDNA, by identifying the cDNA fragment of neosynthesis, following gel electrophoretic run, thanks to incorporation of a nucleotide precursor labelled with phosphorus 32 (P32). […] As in order to be utilisable by the RT, the nucleoside analogues must be transformed into their triphosphate form, the compounds in question were placed in contact with cell protein extracts containing kinases capable of inducing phosphorylations. For this purpose protein extracts were used, obtained by lysis from a million PBMC previously stimulated in 48h of culture with PHA. The nucleoside compounds were incubated in ice for one hour with the lysates. After incubation the samples were taken to 95°C in order to inactivate the cellular enzymes present in the lysates. […]

[4] = system: HSV-1, strain "F"; assay: Plaque reduction assay in Vero cells; type: cell-based, herpes simplex type 1 (HSV-1); conditions: Human alphaherpesvirus 1; HSV-1, Vero cells, 72h; read-out: EC50 (concentration capable of reducing the formation of plaques by 50%)
Description: (§3) To assay the activity of the compounds also towards herpes virus infections, the model for in vitro transmission of herpes simplex type 1 (HSV-1) and of herpes simplex type 2 (HSV-2) to permissive cells of the Vero cell line and plaque reduction assay were used. Vero cells were transferred and cultivated for 24h at 37°C in six-well plates for the cultures to reach confluence. After removal of the culture medium in the wells, a suspension was added containing 100 plaque forming units (PFU) of HSV-1, strain "F", or HSV-2, strain "G" in 100 µl of medium. After one hour of incubation the appropriate quantities of compounds were added diluted in culture medium with the addition of serum 2% and methylcellulose 0.8% to obtain final concentrations of the compounds ranging from 1 µM to 400 µM. The cultures were then incubated for 72h, the medium was removed from the wells and stained with crystal violet 0.8%. After removing the wash liquid, the plates were left to dry and the number of plaques was determined. Acyclovir was used as the positive reference control. A double assay was performed and the values of EC50 (concentration capable of reducing the formation of plaques by 50%) were calculated by extrapolating the mean number of plaques from the plot towards the corresponding concentrations of the compounds.

[5] = system: HSV-2, strain "G"; assay: Plaque reduction assay in Vero cells; type: cell-based, herpes simplex type 2 (HSV-2); conditions: Human alphaherpesvirus 2; HSV-2, Vero cells, 72h; read-out: EC50 (concentration capable of reducing the formation of plaques by 50%)
Description: as §3

[6] = system: HIV-1; assay: Anti-HIV activity in CEM cells, p24 ELISA in supernatant
Description: The strain HIV-1 mixed with HIV-IIIB produced in chronically infected cells of lymphoid origin H-9 and therefore capable of growing the virus stably in a culture, was used to assay the anti-HIV activity. Viral inoculation was prepared by low speed centrifugation (3000 rpm) of the supernatant from the line producing the virus and by subsequent ultracentrifugation (40,000 rpm). The concentrated virus was titrated in TCID 50%/ml (units infecting 50% of the cultures). Cells from the lymphoid T-cell line, CEM, were used as cells to infect. The target cells were placed in contact with various quantities of TCID 50% of titrated virus, in an interval ranging from a MOl (multiplicity of infection) of 0.0001 and 0.1 TCID 50%/cell.
The cultures were kept for 7 days at 37°C in the presence of fetal bovine serum 2%. After 2-4 days of culture the medium was removed and replaced with fresh medium to which the compounds in question were again added.
After seven days of setting up the culture, the infection was evaluated using the ELISA method, measuring the production of HIV-1 p24 protein in the supernatant of infected cultures, treated and untreated.

[7] = Human immunodeficiency virus 1, CCRF-CEM, 168 h, read-out: inhibition of the production of p24 in the supernatant of infected cultures

In the case of `CCOP(=O)(CC1CC(n2cc(F)c(=O)[nH]c2=O)ON1C)OCC` (stereo not shown) [Compound C], the “protection from the infection” value [1] is reported as “total protection”, the antiproliferative action [2] is reported as “poor or no antiproliferative action” and the “inhibition of RT activity” value ([3]; 0.1, 1 and 20 µM) is reported as “capable of inhibiting RT activity”. The EC50 [4] was 34 µM, the EC50 [5] was 56 µM and the “inhibition of the production of p24 in the supernatant of infected cultures” value ([6]; 0.004 µM, CEM cells, 7 days) was “did not cause inhibition”. It also gave an inhibition at 0.04 µM [6, 7] of 60% and an inhibition at 0.4 µM [6, 7] of 75%.

With `Cc1cn([C@H]2C[C@H](N=[N+]=[N-])[C@@H](CO)O2)c(=O)[nH]c1=O` [AZT, zidovudine, reference compound] the “inhibition of RT activity” value ([3]; 0.1 and 10 µM) was “capable of inhibiting RT activity”, the inhibition at 0.004 µM [6, 7] was 60% and the inhibition at 0.04 µM [6, 7] was 80%. The inhibition at 0.4 µM [6, 7] was 98%.

`Nc1nc2c(ncn2COCCO)c(=O)[nH]1` [acyclovir, Acyclovir, reference compound] was tested, and the EC50 [4] was 14 µM and the EC50 [5] was 32 µM.

In the case of `CCOP(=O)(CC1CC(n2cc(C)c(=O)[nH]c2=O)ON1C)OCC` (stereo not shown) [Compound B], the EC50 [4] is reported as 62 µM, the EC50 [5] is reported as 78 µM and the inhibition at 0.04 µM [6, 7] is reported as 50%. The inhibition at 0.4 µM [6, 7] was 70%.

With `CCOP(=O)(CC1CC(n2ccc(N)nc2=O)ON1C)OCC` (stereo not shown) [Compound A] the EC50 [4] was 48 µM, the EC50 [5] was 72 µM and the inhibition at 0.04 µM [6, 7] was 45%. The inhibition at 0.4 µM [6, 7] was 70%.

— patent publication EP1727814B1, “NUCLEOSIDE ANALOGUES WITH ANTIVIRAL ACTIVITY” (Universita' Degli Studi Di Catania, priority 2004, dated 2005)
